Laboratory results from patent US20040185109A1, “Method for incorporating cationic molecules into a substrate for increasing dispersibility of cationic molecules” (priority 2002, published 2004).

Assay: Determination of useful cationic compounds: dye mixed with organoclay, clean clay, quat or alone in water, centrifuged, examined visually
Type: physicochemical
Details: for Ionic character (cationic or anionic) concluded from the visual results: conclusion from Test Tubes 1-4
Text: At the outset of the method of the present invention, it must first be determined if a particular compound or molecule will be able to undergo the method of enhancing its dispersibility and thereby its cationic properties as disclosed herein. Thus, a determination must be made (for example, if the ionic character of a certain compound is unknown) whether or not the ion or molecule comprises an cationic portion that will ion exchange onto the surface of a substrate such as a clay or an organoclay. Thus, the molecule or ion can be tested in order to determine whether it has a cationic character (and thus can undergo the present method) or an anionic character or a neutral character. In testing certain molecules or ions, the procedure described below was employed.
Using Jarocol Straw Yellow dye as a representative example, four 1 mg samples of the dye were weighed and placed in 4 test tubes.
Subsequently, 10 mL of water were added to each of the four test tubes, and all of the samples were mixed well for 30 seconds. The samples from each of the test tubes were then centrifuged for 15 minutes in a laboratory scale centrifuge.
Next, the resulting centrifuged samples were examined and analyzed (by being compared to the control sample) to determine whether the Jarocol Straw Yellow dye reacted with the organoclay, the clean clay, or the quat, so that it could then be decided if Jarocol Straw Yellow dye has the requisite cationic character to ion exchange onto the surface of a clay and thereby have increased dispersibility in various application systems.
The analysis herein was performed visually, since the six samples tested were dyes. However, non-dye samples may be analyzed through infrared spectroscopy, differential scanning calorimetry (DSC), gas chromatography, UV spectroscopy, thermogravimetric analysis, or the like. For example, for a non-dye sample, the clay may be separated from the water, both parts may be taken to dryness, and the IR spectrum of each may be recorded.
Just as Jarocol Straw Yellow dye was tested using the four test tubes, the other five dye samples were similarly tested.

Structure (SMILES)	Ionic character (cationic or anionic) concluded from the visual results	Test Tube 3 (10 mg Quat) visual result (1 mg dye + 10 mg quat, 10 mL water, mixed 30 seconds, centrifuged 15 minutes)	Test Tube 4 (Control, sample only) visual result (1 mg dye only, 10 mL water, mixed 30 seconds, centrifuged 15 minutes)
O=C([O-])c1ccccc1-c1c2cc(Br)c(=O)c(Br)c-2oc2c(Br)c([O-])c(Br)cc12.[Na+].[Na+] [D&C Red No. 22 dye]	exhibit anionic character to some extent		
CCN(Cc1cccc(S(=O)(=O)[O-])c1)c1ccc(C(=C2C=CC(=[N+](CC)Cc3cccc(S(=O)(=O)[O-])c3)C=C2)c2ccccc2S(=O)(=O)[O-])cc1.[Na+].[Na+] [FD&C Blue No. 1 dye]	exhibit anionic character to some extent		
O=C([O-])C1=NN(c2ccc(S(=O)(=O)[O-])cc2)C(=O)C1N=Nc1ccc(S(=O)(=O)[O-])cc1.[Na+].[Na+].[Na+] (stereo not shown) [FD&C Yellow No. 5 dye]	exhibit anionic character to some extent		
Cc1ccc(N=Nc2c([O-])c(C(=O)O)cc3ccccc23)c(S(=O)(=O)[O-])c1.[Na+].[Na+] [Lithol Rubine B]	anionic in nature	formed a highly insoluble reaction product with the quat	Water was red
CN(C)c1ccc2nc3ccc(=[N+](C)C)cc-3sc2c1 [Methylene Blue, laboratory reagent dye, methylene blue]	have the requisite cationic character		
